This note sets out measurements from patent US4968705A, “Benzopyrrolidinone compounds as bronchospastic agents” (Adir et Cie, priority 1988, dated 1990).

Like-named read-outs stand apart in the source and are kept apart here. A value given as a limit tells only on which side of the number the result lay.

Data set [1] deals with histamine-induced bronchoconstriction. The experiment in a line: Armitage test: histamine-induced bronchoconstriction test in guinea pigs. Format: in vivo. Particulars: guinea pig p.o. An excerpt:
(§1) The compounds of the invention and the prior art product fenspiride of the prior art used as reference substance were subjected to various tests described in ARZNEIMITTEL-FORSCHUNG/DRUG RESEARCH 37 (II), 12, 1354-1355 (1987), especially
the histamine-induced bronchoconstriction test in guinea pigs, […]

The nature of the next data set: Toxicity LD50 in mouse. Type of data set: in vivo. The note with it: in vivo.
Description: as §1

In data set [2] the target is purified phosphodiesterase. As to the kind of experiment: In vitro inhibition of purified phosphodiesterase. Format: biochemical.
Description: as §1
to assays in vitro on the inhibition of purified phosphodiesterase.

Data set [3] concerns experimental asthma induced in guinea pigs by antigen aerosols. The experiment in a line: Passive shock in guinea pigs (experimental asthma induced by antigen aerosols). Type of data set: in vivo. The note with it: Cavia porcellus, read-out: Passive shock guinea pig ED50. An excerpt:
to the determination of the passive shock resulting from the study of experimental asthma induced in guinea pigs by antigen aerosols and […]

For the next data set, the system named is mice's ear edema. The experiment in a line: Mice's ear edema (technique of Young et al.). Type of data set: in vivo. The note with it: for decrease of the mice's ear edema: per os, 36 micromole/kg. Here is the method:
The compounds of the present invention were also tested on the mice's ear edema according to the technique of John M. YOUNG et al., Journal of […], 82, 363-371 (1984). Administrated, per os, at a dose of 36 micromole/kg, the derivatives of the present invention provoke a decrease of the mice's ear edema of from 15 to 50% according to the compounds.

The subject of the next data set is mouse. As to the kind of experiment: Toxicity LD50 in mouse. Format: in vivo. The note with it: PO.
Description: as §1

Setting [4] is: Cavia porcellus, po, read-out: Armitage test % protection.
Where [5] appears, read: +calmoduline, read-out: Phosphodiesterase inhibition IC50 +calmoduline (converted).
The mark [6] stands for this setting: basal, read-out: Phosphodiesterase inhibition IC50 basal (converted).
[7] abbreviates: Cavia porcellus, po, dose 1 mg/kg, read-out: Armitage test % protection.

For orientation: LD50 means the dose at which mortality reaches 50%. The low end stands for a more toxic substance, the high end for a less toxic substance. Usually IC50 stands for the midpoint of a concentration-inhibition curve. With `O=C1Cc2ccccc2N1CCN1CCC(C(c2ccc(F)cc2)c2ccc(F)cc2)CC1` [Example 10, 1-(4-bis-para-fluorobenzhydrylpiperidinoethyl)oxindole], the inhibition in vivo at 5 mg/kg in data set [1] (setting [4]) came out at 78%. In “Toxicity LD50 in mouse” (PO), this compound had an LD50 of less than 800 mg/kg. The values for the half-inhibitory concentration (IC50) in data set [2] (setting [5]) and in data set [2] (setting [6]) were 100 µM and more than 100 µM, respectively.
As a reminder, the ED50 is the dose at which the effect has come halfway, by size or by number of responders. Consider `O=C1Cc2ccccc2N1CCCN1CCC(C(c2ccc(F)cc2)c2ccc(F)cc2)CC1` [Example 4, 1-(4-bis-para-fluorobenzhydrylpiperidinopropyl)-oxindole], for which the inhibition in vivo at 20 mg/kg in data set [1] (Cavia porcellus, po, dose 20 mg/kg, read-out: Armitage test % protection) was 59.4%. The median lethal dose (LD50) in the data set “Toxicity LD50 in mouse” (IP) was approximately 200 mg/kg. The median effective dose (ED50) in data set [3] (guinea pig, IP) worked out at 40 mg/kg.
Take `O=C1Cc2ccccc2N1CCN1CCC(OC(c2ccc(F)cc2)c2ccc(F)cc2)CC1` [Example 3, 1-(4-bis-para-fluorobenzhydryloxypiperidinoethyl)oxindole]: the inhibition in vivo at 1 mg/kg in data set [1] (setting [7]) is 47.6%. The compound further registered an LD50 in “Toxicity LD50 in mouse” (PO) of less than 800 mg/kg. Moreover, the “Phosphodiesterase inhibition IC50 basal” value in data set [2] (basal) is “inactif”.
In the case of `O=c1[nH]c2ccccc2n1CCCN1CCN(C(c2ccccc2)c2ccccc2)CC1` [oxatomide], in the data set with mice's ear edema, the “decrease of the mice's ear edema” value was “lower than 15%”.
With `O=C1Cc2ccccc2N1CCN1CCC(OC(c2ccc(F)cc2)c2ccc(F)cc2)CC1` [Example 7, 1-(4-bis-para-fluorobenzhydryloxypiperidinoethyl)oxindole], the “Armitage test % protection” value in data set [1] (dose 1 mg/kg) was “+50%”. Also, the “Toxicity LD50” value with mouse is on record as less than 800 mg/kg. The ED50 in data set [3] (po) lay within 2.5 to 5 mg/kg. The “Phosphodiesterase inhibition IC50 basal” value in data set [2] (basal) is recorded as “inactif”.
In the case of `O=C1Cc2ccccc2N1CCN1CCC(OC(c2ccccc2)c2ccccc2)CC1` [Example 1, 1-(4-benzhydryloxypiperidinoethyl)oxindole], in data set [1] (setting [7]), the inhibition in vivo at 1 mg/kg stood at 66%. For the same compound, the LD50 in “Toxicity LD50 in mouse” (IP) was approximately 200 mg/kg. For the same compound, the median effective dose (ED50) in data set [3] (ip) amounted to 2.5 mg/kg; in data set [3] (po), 5 mg/kg. Besides, in data set [2] (basal), the “Phosphodiesterase inhibition IC50 basal” value was “inactif”.
For the compound `O=C1Cc2cccc(F)c2N1CCN1CCC(OC(c2ccccc2)c2ccccc2)CC1` [Example 6, 1-(4-benzhydryloxypiperidinoethyl)-7-fluoro-oxindole], the inhibition in vivo at 1 mg/kg in data set [1] (setting [7]) was 36.6%. In addition, the “Phosphodiesterase inhibition IC50 basal” value in data set [2] (basal) is given as “inactif”.
For the compound `O=C1c2ccc(F)cc2CN1CCN1CCC(OC(c2ccccc2)c2ccccc2)CC1` [Example 18, 2-(4-benzhydryloxypiperidinoethyl)-5-fluoro-isoxindole], the inhibition in vivo at 5 mg/kg in data set [1] (setting [4]) was determined as 68%. The LD50 in “Toxicity LD50 in mouse” (PO) is more than 800 mg/kg. Besides, in data set [3] (guinea pig, PO), the ED50 was 40 mg/kg. Further, the figures for the IC50 in data set [2] (setting [5]) and in data set [2] (setting [6]) were 20 µM and 100 µM, respectively.
The like results for `COc1cc2c(cc1OC)C(=O)N(CCCN1CCC(OC(c3ccccc3)c3ccccc3)CC1)C2` [Example 12, 2-(4-benzhydryloxypiperidinopropyl)-5,6-dimethoxyisoxindole] were, in that order, 79%, 800 mg/kg, 20 mg/kg, 20 µM and 70 µM.
The like results for `O=C1c2ccc(F)cc2CN1CCCN1CCC(OC(c2ccccc2)c2ccccc2)CC1` [Example 19, 2-(4-benzhydryloxypiperidinopropyl)-5-fluoro-isoxindole] were, in that order, 68%, more than 800 mg/kg, 10 mg/kg, 20 µM and more than 100 µM.
For the compound `O=C1NCC2(CCN(CCc3ccccc3)CC2)O1` [Fenspiride, reference compound], in the data set on mice's ear edema (same conditions and same dose (per os, 36 micromole/kg)), the “activity on mice's ear edema (in words)” value is reported as “no activity”. Further, in data set [1] (Cavia porcellus, po, dose 2,5 mg/kg, read-out: Armitage test % protection), the inhibition in vivo at 2.5 mg/kg worked out at 69%. In addition, the median lethal dose (LD50) in “Toxicity LD50 in mouse” (PO) was more than 800 mg/kg. Also, the ED50 is 5 mg/kg in data set [3] (guinea pig, IP) and 10 mg/kg in data set [3] (guinea pig, PO). The IC50 in data set [2] (setting [5]) and in data set [2] (setting [6]) was more than 100 µM throughout.
Regarding `O=C1Cc2cc(F)ccc2N1CCCN1CCC(OC(c2ccccc2)c2ccccc2)CC1` [Example 17, 1-(4-benzhydryloxypiperidinopropyl)-5-fluoro-oxindole], the inhibition in vivo at 5 mg/kg in data set [1] (setting [4]) stood at 75%. Also, the median lethal dose (LD50) in the data set “Toxicity LD50 in mouse” (PO) is more than 800 mg/kg. Also, the ED50 in data set [3] (guinea pig, PO) came out at 40 mg/kg. The concentration for half-maximal inhibition (IC50) in data set [2] (setting [5]) was 10 µM; in data set [2] (setting [6]), more than 100 µM.
Turning to `O=C1c2ccccc2CN1CCN1CCC(OC(c2ccccc2)c2ccccc2)CC1` [Example 2, 2-(4-benzhydryloxypiperidinoethyl)isoxindole], in data set [1] (setting [7]), the inhibition in vivo at 1 mg/kg is 36%. In addition, in the data set “Toxicity LD50 in mouse” (PO), the LD50 is more than 800 mg/kg. The ED50 in data set [3] (guinea pig, PO) lay in the range of 2.5 to 5 mg/kg. In data set [2] (setting [6]), the 50% inhibitory concentration (IC50) is more than 100 µM.
On to `O=C1Cc2ccccc2N1CCN1CCC(SC(c2ccccc2)c2ccccc2)CC1` [Example 9, 1-(4-benzhydrylthiopiperidinoethyl)-oxindole], for which, in data set [1] (setting [4]), the inhibition in vivo at 5 mg/kg came out at 60%.
Regarding `O=C1Cc2ccccc2N1CCCN1CCC(OC(c2ccccc2)c2ccccc2)CC1` [Example 5, 1-(4-benzhydryloxypiperidinopropyl)-oxindole], in data set [1] (setting [7]), the inhibition in vivo at 1 mg/kg turned out to be 72.1%. The results for the half-maximal inhibitory concentration (IC50) in data set [2] (setting [5]) and in data set [2] (setting [6]) were 100 µM and more than 100 µM, respectively.
As to `CC1(C)C(=O)N(CCN2CCC(OC(c3ccccc3)c3ccccc3)CC2)c2ccccc21` [Example 14, 1-(4-benzhydryloxypiperidinoethyl)-3,3-dimethyloxindole], the inhibition in vivo at 5 mg/kg in data set [1] (setting [4]) was found to be 70%. For the same compound, in the data set “Toxicity LD50 in mouse” (PO), the LD50 is more than 800 mg/kg. The median effective dose (ED50) in data set [3] (guinea pig, PO) is more than 40 mg/kg. The IC50 was 20 µM in data set [2] (setting [5]) and 30 µM in data set [2] (setting [6]).
For the compound `O=C1c2cc(F)ccc2CN1CCN1CCC(OC(c2ccccc2)c2ccccc2)CC1` [Example 20, 2-(4-benzhydryloxypiperidinoethyl)-6-fluoro-isoxindole], the inhibition in vivo at 5 mg/kg in data set [1] (setting [4]) was 43%. The compound also showed an LD50 in “Toxicity LD50 in mouse” (PO) of more than 800 mg/kg. Besides, the median effective dose (ED50) in data set [3] (guinea pig, PO) is 40 mg/kg. The IC50 was 20 µM in data set [2] (setting [5]) and more than 100 µM in data set [2] (setting [6]).
The like results for `CC(C)C1C(=O)N(CCN2CCC(OC(c3ccccc3)c3ccccc3)CC2)c2ccccc21` (stereo not drawn) [Example 15, 1-(4-benzhydryloxypiperidinoethyl)-3-isopropyloxindole] were, in that order, 50%, more than 800 mg/kg, 5 mg/kg, 30 µM and 100 µM.
Turning to `O=C1c2ccccc2CN1CCCN1CCC(OC(c2ccccc2)c2ccccc2)CC1` [Example 16, 2-(4-benzhydryloxypiperidinopropyl)-isoxindole], the inhibition in vivo at 5 mg/kg in data set [1] (setting [4]) amounted to 82%. In “Toxicity LD50 in mouse” (PO), this compound came in with an LD50 of more than 800 mg/kg. For the same compound, in data set [3] (guinea pig, PO), the ED50 came out at 5 mg/kg. In addition, the half-maximal inhibitory concentration (IC50) in data set [2] (setting [5]) is 30 µM; in data set [2] (setting [6]), more than 100 µM.
For the compound `O=C1Cc2cc(F)ccc2N1CCN1CCC(OC(c2ccccc2)c2ccccc2)CC1` [Example 8, 1-(4-benzhydryloxypiperidinoethyl)-5-fluoro-oxindole], the inhibition in vivo at 1 mg/kg in data set [1] (setting [7]) amounted to 72%. Further, the 50% effective dose (ED50) in data set [3] (po) was in the range of 2.5 to 5 mg/kg. Further, in data set [2] (setting [6]), the IC50 was more than 10 µM.
`O=c1[nH]c2ccccc2n1CCN1CCC(OC(c2ccccc2)c2ccccc2)CC1` [1[(2-oxo-3-benzimidazolinyl-ethyl]-4-benzhydryloxy-piperidine]: the “decrease of the mice's ear edema” value with mice's ear edema was “lower than 15%”.
